Assay [1] deals with CHO cells transfected with the Mas receptor (CHO-Mas). The assay is described as follows: Western blot, phosphorylation of eNOS stimulatory site (S1177) in CHO-Mas cells. Format: cell-based. Conditions: FIG. 11. The method, then:
(§1) CHO cells transfected with the Mas receptor (CHO-Mas) and human endothelial cells of the thoracic aorta (HAEC) were cultured until confluence of approximately 80% and processed with a lise buffer for Western blotting. After the processing, the protein concentration was determined and the lisates were subjected to electrophoresis in polyacrylamide/SDS gel and then subjected to transfer to the nitrocellulose membrane. The membranes were incubated with specific antibodies (anti-phospho-Akt, anti-Akt, anti-phospho-eNOS and anti-β-actin). The bands were viewed after development by chemoluminescence.

The test system of assay [2] is human endothelial cells of the thoracic aorta (HAEC). The assay is described as follows: Western blot, phosphorylation of kinase B (Akt) in HAEC. Type of assay: cell-based. Conditions: FIG. 12. As to the method:
as §1
(Immunoblotting shows a protein as a band on a membrane.)

The next assay has as its system awake Wistar rats. The assay is described as follows: Vasodilating action of acetylcholine (blood pressure) in awake rats. Conditions: endovenous infusion 7.0 pmol/min, n=9, FIG. 14B. Type of assay: in vivo, rat. As to the method:
Wistar rats were subjected, 24 hours before the experiments, to surgical implantation of catheters into the femoral artery (for analysis of blood pressure and heart rate), femoral vein (for injection and infusion of drugs) and left carotid artery (for injection of drugs). The records of blood pressure and heart rate were obtained through a data acquisition system connected to a microcomputer (BIOPAC System, INc.). […] In none of the groups did we observe any alterations in the baroreflex.

The next assay relates to NAD(P)H oxidase. The assay is described as follows: NAD(P)H oxidase activity in HAEC homogenate, lucigenin chemoluminescence. Conditions: HAEC stimulated by Ang II 10^-7 M 10 min; Ang-(1-7) 10^-7 M 15 min pre-incubation; FIG. 16; direction stated only. Format: cell-based, human. As to the method: (§2) In order to quantify the activity of the NAD(P)H Oxtidase, human aorta endothelial cells (HAEC) were stimulated with angiotensin II (10^−7M) for 10 minutes. In some experiments, the cells were pre-exposed to the AT1 receptor antagonist Ibesartan (10^−5M), for 30 minutes or to Ang-(1-7) (10^−7 M) for 15 minutes. The chemoluminescence derived from lucigenin was used to determine the activity of NAD(P)H oxidase in the homogenate of the cells. In order to quantify the modulation of Ang-(1-7) in the phosphorylation of c-SRC, the HAECs were cultured until confluence of about 80% was reached and processed with lise buffer for Western blotting. After the processing, the protein concentration was determined and the lisates were subjected to gel electroforesis of polyacrylamide/SDS and then to the transfer to nitrocellulose membrane. The membranes were incubated with specific antibodies (anti-phospho-c-SRC, anti-c-SRC). The bands were visualized after development by chemoluminescency. […] In some experiments the cells were pre-incubated with Ibesartan (10^−5 M, 30 min). Data are presented with an average±EPM of 4 experiments. *p<0.05 vs control.+p<0.05 vs Ang II+Ang (1-7).

Assay [3] relates to human endothelial cells of the thoracic aorta (HAEC). The assay is described as follows: Western blot, phosphorylation of eNOS stimulatory site (S1177) in HAEC. Type of assay: cell-based. Conditions: FIG. 13. The method, then:
as §1

The subject of assay [4] is CHO cells transfected with the Mas receptor (CHO-Mas). Put plainly: Western blot, phosphorylation of kinase B (Akt) in CHO-Mas cells. Type of assay: cell-based. Conditions: FIG. 10. The method, then:
as §1

In assay [5] the test system is human aorta endothelial cells (HAEC). The assay is described as follows: Western blot, phosphorylation of c-SRC stimulated by Ang II in HAEC. Format: cell-based. Conditions: FIG. 15, 4 experiments, b15 words it as inhibiting c-SRC. As to the method: as §2
In the next assay the test system is C57 mice. The assay is described as follows: Testis histology (apoptosis) and gonadosomatic index after 14-day osmotic mini-pump infusion. Conditions: 2.5 μg/h s.c. mini-pump, 14 days, n=5, FIG. 17. Type of assay: in vivo, mouse. As to the method: Osmotic mini-pumps (ALZET, model 2002) containing the Mas G-protein-coupled receptor antagonist, A-779 (2.5 μg/h, 14 days, n=5) or carrier (NaCl 0.9%, 1 μl/h, 14 days, n=6) were implanted subscutaneously into the dorsal region of C57 mice under anesthesia with tribromoethanol (2.5%, 1 ml/100 g of body weight). After this period, the animals were weigh and then injected, by intraperitoneal route, with heparin at the concentration of 125 Ul/kg of body weight. After fifteen minutes, these animals were sedated with sodium thiopental (50 mg/kg of body weight) and perfused through the left ventricle. In a first step, it was carried out the washing of the vascular bed with a 0.9% saline solution, under a pressure of approximately 80 mmHg, for about 5 minutes, at room temperature. Immediately after this procedure, the animals were perfused with a 4% glutaraldehyde fixing solution in a phosphate buffer (0.05M, pH 7.2-7-4) for about 25 minutes. After this step, the testicles were removed and separated from the respective epididymis and weighed. From the testicular and body weights, one estimated the gonadosomatic index (percentage relation between the testicular weight and the body weight) for each animal. For the microscopic analyses, fragments of the testis up to about 3 mm thick were collected, which were dipped into glutaraldehyde buffered at 4% for two to four hours, at 4° C. […]

For the substance Angiotensin-(1-7) [Ang-(1-7)], the “phosphorylation of the stimulatory site of endothelial nitric oxide synthase (S1177)” value in assay [1] was “stimulated”. Further, the “phosphorylation of kinase B (Akt)” value is on record as “stimulatory effect” in assay [2] and “stimulation” in assay [4]. In addition, the “effect on the vasodilating action of acetylcholine (ACh)” value with awake Wistar rats is on record as “potentiates the vasodilating action of acetylcholine”. The “activity of NAD(P)H oxidase” value with NAD(P)H oxidase is “inhibits the activity of NAD(P)H oxidase”. In addition, in assay [3], the “phosphorylation of the stimulatory site of eNOS (S1177)” value is reported as “stimulated”. Besides, in assay [5], the “effect on phosphorylation of c-SRC stimulated by Ang II” value is listed as “modulating effect”.

With “Asp^1-Arg^2-Val^3-Tir^4-Lle^5-His^6-D-Ala^7 [A-779, reference compound]”, the “effect on Ang-(1-7)-stimulated phosphorylation of kinase B (Akt)” value in assay [2] and in assay [4] was “blocked this effect” in each case. For the same substance, the “gonadosomatic index (testicular weight / body weight, percentage) versus control group” value in the assay with C57 mice is given as “there was not different”. In addition, the “number of apoptosis per transverse section of testis versus control group” value in the assay with C57 mice is “larger number of apoptosis per transverse section”.

For the origin of these results see patent US20080312129A1, “Use of Mas G-Protein-Coupled Receptor Agonists and Antagonists, as Apoptotic-Activity Modulators for Study, Prevention and Treatment of Diseases” (priority 2005, published 2008).
